Data published in ChEMBL document CHEMBL5518176, “Identification of novel aminopyrimidine derivatives for the treatment of mutant NSCLC” (Eur J Med Chem, 2024).
Activity calls are given as the source filed them. The calls are words filed in the database; no cut-off is given here.

Assays:
BaF3 [1] = experiment: Antiproliferative activity against mouse BaF3 cells harboring EGFR L858R/T790M/C797S triple mutant assessed as inhibition of cell growth incubated for 72 hrs by CellTiter-Glo luminescent assay; type: functional, cell-based; conditions: BaF3, 72 h
NCI-H1975 [2] = experiment: Antiproliferative activity against human NCI-H1975 cells harboring EGFR L858R/T790M/C797S triple mutant assessed as inhibition of cell growth incubated for 72 hrs by CellTiter-Glo luminescent assay; type: functional, cell-based; conditions: NCI-H1975, 72 h
NCI-H1975 [3] = experiment: Antiproliferative activity against human NCI-H1975 cells harboring EGFR L858R/T790M double mutant assessed as inhibition of cell growth incubated for 72 hrs by MTT assay; type: functional, cell-based; conditions: NCI-H1975, 72 h
BaF3 [4] = experiment: Antiproliferative activity against mouse BaF3 cells harboring EGFR Del19/T790M/C797S triple mutant assessed as inhibition of cell growth incubated for 72 hrs by CellTiter-Glo luminescent assay; type: functional, cell-based; conditions: BaF3, 72 h
A549 = experiment: Antiproliferative activity against human A549 cells assessed as inhibition of cell growth incubated for 72 hrs by MTT assay; type: functional, cell-based; conditions: A549, 72 h
BaF3 [5] = experiment: Antiproliferative activity against mouse BaF3 cells harboring wildtype EGFR assessed as inhibition of cell growth incubated for 72 hrs by CellTiter-Glo luminescent assay; type: functional, cell-based; conditions: BaF3, 72 h
NCI-H1975 [6] = experiment: Antiproliferative activity against human NCI-H1975 cells harboring EGFR L858R/T790M/C797S triple mutant assessed as inhibition of cell growth incubated for 72 hrs in presence of osimertinib by CellTiter-Glo luminescent assay; type: functional, cell-based; conditions: NCI-H1975, 72 h
NCI-H1975 [7] = experiment: Induction of apoptosis in human NCI-H1975 cells harboring EGFR L858R/T790M/C797S triple mutant assessed as late apoptotic cells at 0.4 uM incubated for 48 hrs by Annexin V-FITC/PI staining based flow cytometric analysis (reference value: 0.89 %); type: functional
NCI-H1975 [8] = experiment: Induction of apoptosis in human NCI-H1975 cells harboring EGFR L858R/T790M/C797S triple mutant assessed as viable cells at 0.4 uM incubated for 48 hrs by Annexin V-FITC/PI staining based flow cytometric analysis (reference value: 98.3 %); type: functional; conditions: read-out: Activity
NCI-H1975 [9] = experiment: Induction of apoptosis in human NCI-H1975 cells harboring EGFR L858R/T790M/C797S triple mutant assessed as early apoptotic cells at 0.4 uM incubated for 48 hrs by Annexin V-FITC/PI staining based flow cytometric analysis (reference value: 0.39 %); type: functional
NCI-H1975 [10] = experiment: Induction of apoptosis in human NCI-H1975 cells harboring EGFR L858R/T790M/C797S triple mutant assessed as late apoptotic cells at 0.8 uM incubated for 48 hrs by Annexin V-FITC/PI staining based flow cytometric analysis (reference value: 0.89 %); type: functional
NCI-H1975 [11] = experiment: Induction of apoptosis in human NCI-H1975 cells harboring EGFR L858R/T790M/C797S triple mutant assessed as early apoptotic cells at 1.5 uM incubated for 48 hrs by Annexin V-FITC/PI staining based flow cytometric analysis (reference value: 0.39 %); type: functional
NCI-H1975 [12] = experiment: Induction of apoptosis in human NCI-H1975 cells harboring EGFR L858R/T790M/C797S triple mutant assessed as late apoptotic cells at 1.5 uM incubated for 48 hrs by Annexin V-FITC/PI staining based flow cytometric analysis (reference value: 0.89 %); type: functional
NCI-H1975 [13] = experiment: Induction of apoptosis in human NCI-H1975 cells harboring EGFR L858R/T790M/C797S triple mutant assessed as early apoptotic cells at 0.8 uM incubated for 48 hrs by Annexin V-FITC/PI staining based flow cytometric analysis (reference value: 0.39 %); type: functional
[14] = Antiproliferative activity against human BEAS-2B cells assessed as inhibition of cell growth; type: toxicity, cell-based
NCI-H1975 [15] = experiment: Induction of apoptosis in human NCI-H1975 cells harboring EGFR L858R/T790M/C797S triple mutant assessed as necrotic cells at 1.5 uM incubated for 48 hrs by Annexin V-FITC/PI staining based flow cytometric analysis (reference value: 0.42 %); type: functional
NCI-H1975 [16] = experiment: Induction of apoptosis in human NCI-H1975 cells harboring EGFR L858R/T790M/C797S triple mutant assessed as necrotic cells at 0.8 uM incubated for 48 hrs by Annexin V-FITC/PI staining based flow cytometric analysis (reference value: 0.42 %); type: functional
NCI-H1975 [17] = experiment: Induction of apoptosis in human NCI-H1975 cells harboring EGFR L858R/T790M/C797S triple mutant assessed as viable cells at 1.5 uM incubated for 48 hrs by Annexin V-FITC/PI staining based flow cytometric analysis (reference value: 98.3 %); type: functional; conditions: read-out: Activity
NCI-H1975 [18] = experiment: Induction of apoptosis in human NCI-H1975 cells harboring EGFR L858R/T790M/C797S triple mutant assessed as viable cells at 0.8 uM incubated for 48 hrs by Annexin V-FITC/PI staining based flow cytometric analysis (reference value: 98.3 %); type: functional; conditions: read-out: Activity
NCI-H1975 [19] = experiment: Induction of cell cycle arrest in human NCI-H1975 cells harboring EGFR L858R/T790M/C797S triple mutant at 0.4 to 1.5 uM incubated for 48 hrs by flow cytometric analysis; type: functional, cell-based; conditions: dose 0.4-1.5 µM
NCI-H1975 [20] = experiment: Induction of apoptosis in human NCI-H1975 cells harboring EGFR L858R/T790M/C797S triple mutant assessed as necrotic cells at 0.4 uM incubated for 48 hrs by Annexin V-FITC/PI staining based flow cytometric analysis (reference value: 0.42 %); type: functional

| Compound | IC50 (BaF3 [1]) [nM] | IC50 (NCI-H1975 [2]) [nM] | IC50 (NCI-H1975 [3]) [nM] | IC50 (BaF3 [4]) [nM] | IC50 (A549) [nM] | also measured |
| --- | --- | --- | --- | --- | --- | --- |
| Nc1nccc(Nc2ccc(NC(=O)C(c3ccccc3)N3Cc4ccccc4C3=O)cc2)n1 (configuration not stated) | > 10000 | > 10000 | > 20000 | > 10000 | > 20000 |  |
| CN1CCN(c2ccc(-c3ccc4c(c3)CN(C(C(=O)Nc3ccc(Nc5ccnc(N)n5)cc3)c3ccccc3)C4=O)cc2)CC1 (racemic) | 690 | 1650 |  | 620 | 12200 | IC50 (BaF3 [5]): 1500 nM |
| O=C(Nc1nccs1)[C@@H](c1cc(F)ccc1O)N1Cc2ccc(-c3ccc(N4CCNCC4)cc3)cc2C1=O |  | 3660 |  |  |  | IC50 (NCI-H1975 [6]): 1250 nM |
| Nc1nccc(Nc2ccc(NC(=O)C(c3ccccc3)N3Cc4cc(-c5ccc(N6CCNCC6)cc5)ccc4C3=O)c(Cl)c2)n1 (configuration not stated) | 1240 | 2320 | 4400 | 860 | 3960 |  |
| Nc1nccc(Nc2ccc(NC(=O)C(c3ccccc3)N3Cc4cc(-c5ccc(N6CCNCC6)cc5)ccc4C3=O)c(F)c2)n1 (configuration not stated) | 1430 | 1430 | 2440 | 720 | 1780 |  |
| C=CC(=O)Nc1cc(Nc2nccc(-c3cn(C)c4ccccc34)n2)c(OC)cc1N(C)CCN(C)C [OSIMERTINIB] | 1120 | […] | […] | 750 | […] | IC50 (BaF3 [5]): 9 nM |
| CN1CCN(c2ccc(-c3ccc4c(c3)CN([C@@H](C(=O)Nc3ccc(Nc5ccnc(N)n5)cc3)c3ccccc3)C4=O)cc2)CC1 | 420 | 820 | 2950 | 410 | 5140 | Activity (NCI-H1975 [7]): 1.64%; viability at 0.4 µM (NCI-H1975 [8]): 97.3%; Activity (NCI-H1975 [9]): 0.59%; Activity (NCI-H1975 [10]): 11.16%; Activity (NCI-H1975 [11]): 1.83%; Activity (NCI-H1975 [12]): 12.15%; Activity (NCI-H1975 [13]): 1.45%; IC50 (BaF3 [5]): 410 nM; IC50 [14]: 5120 nM; Activity (NCI-H1975 [15]): 0.73%; Activity (NCI-H1975 [16]): 0.69%; viability at 1.5 µM (NCI-H1975 [17]): 85.3%; viability at 0.8 µM (NCI-H1975 [18]): 86.7%; Activity (NCI-H1975 [19]): inactive; Activity (NCI-H1975 [20]): 0.51% |
| Nc1cc(Nc2ccc(NC(=O)C(c3ccccc3)N3Cc4ccccc4C3=O)cc2)ncn1 (configuration not stated) | > 10000 | > 10000 | > 20000 | > 10000 | > 20000 |  |
| CCN(CC)c1ccc(-c2ccc3c(c2)CN(C(C(=O)Nc2ccc(Nc4ccnc(N)n4)cc2)c2ccccc2)C3=O)cc1 (racemic) | 1190 |  | 11600 | 1190 | 15700 |  |
| CN1CCN(c2ccc(-c3ccc4c(c3)CN([C@H](C(=O)Nc3ccc(Nc5ccnc(N)n5)cc3)c3ccccc3)C4=O)cc2)CC1 | 720 | 1640 | 2820 | 750 | 7180 | IC50 (BaF3 [5]): 450 nM |

Further lines, with some results ahead:

| IC50 (BaF3 [1]) [nM] | IC50 (NCI-H1975 [2]) [nM] | IC50 (NCI-H1975 [3]) [nM] | IC50 (BaF3 [4]) [nM] | IC50 (A549) [nM] | Compound | also measured |
| --- | --- | --- | --- | --- | --- | --- |
| 2550 |  | 9950 | 2450 | 5130 | O=C(Nc1ccc(Nc2ccncn2)cc1)C(c1ccccc1)N1Cc2cc(-c3ccc(N4CCNCC4)cc3)ccc2C1=O (configuration not stated) |  |
| 1420 | 1530 | 7800 | 1720 | 4520 | Nc1nccc(Nc2ccc(NC(=O)C(c3ccccc3)N3Cc4cc(-c5ccc(N6CCNCC6)cc5)ccc4C3=O)cc2F)n1 (configuration not stated) |  |
| 2080 |  | > 20000 | 2580 | > 20000 | Nc1nccc(Nc2ccc(NC(=O)C(c3ccccc3)N3Cc4cc(-c5ccc(N6CCCCC6)cc5)ccc4C3=O)cc2)n1 (racemic) |  |
| 1280 | 1640 | 2930 | 1210 | 4020 | Nc1nccc(Nc2ccc(NC(=O)C(c3ccccc3)N3Cc4ccc(-c5ccc(N6CCNCC6)cc5)cc4C3=O)cc2)n1 (configuration not stated) |  |
| 1040 | 2700 | 3820 |  | 5200 | O=C(Nc1ccc(Nc2ccncc2)cc1)C(c1ccccc1)N1Cc2cc(-c3ccc(N4CCNCC4)cc3)ccc2C1=O (configuration not stated) |  |
| 1960 |  | > 20000 | 1960 | > 20000 | Nc1nccc(Nc2ccc(NC(=O)C(c3ccccc3)N3Cc4cc(-c5ccc(N6CCOCC6)cc5)ccc4C3=O)cc2)n1 (racemic) |  |
| 480 | 2650 | 3600 |  | 4880 | COc1nccc(Nc2ccc(NC(=O)C(c3ccccc3)N3Cc4cc(-c5ccc(N6CCNCC6)cc5)ccc4C3=O)cc2)n1 (configuration not stated) |  |
| 970 | 1490 | 3200 | 690 | 530 | Nc1nccc(Nc2ccc(NC(=O)C(c3ccccc3)N3Cc4cc(-c5ccc(N6CCNCC6)cc5)ccc4C3=O)cc2)n1 (configuration not stated) |  |
| 1460 | 4160 | 3200 | 890 | 2210 | Nc1nccc(Nc2cccc(NC(=O)C(c3ccccc3)N3Cc4cc(-c5ccc(N6CCNCC6)cc5)ccc4C3=O)c2)n1 (configuration not stated) |  |
| 930 | 2690 | 4750 |  | 3970 | Cc1nccc(Nc2ccc(NC(=O)C(c3ccccc3)N3Cc4cc(-c5ccc(N6CCNCC6)cc5)ccc4C3=O)cc2)n1 (configuration not stated) |  |
| 3960 | > 10000 | > 20000 | 1520 | > 20000 | Nc1cc(Nc2ccc(NC(=O)C(c3ccccc3)N3Cc4cc(-c5ccc(N6CCNCC6)cc5)ccc4C3=O)cc2)ncn1 (configuration not stated) |  |
| 1440 | 1550 | 3320 | 860 | 4200 | Nc1nccc(Nc2ccc(NC(=O)C(c3ccccc3)N3Cc4cc(-c5ccc(N6CCNCC6)cc5)ccc4C3=O)cc2Cl)n1 (configuration not stated) |  |
